Measured values: ChEMBL document CHEMBL1137017, “In vitro antiviral activity and cross-resistance profile of PL-100, a novel protease inhibitor of human immunodeficiency virus type 1” (Antimicrob Agents Chemother, 2007)

Assays:
[1] = target: Cathepsin D (Homo sapiens, UniProt P07339); experiment: Inhibition of human cathepsin D
[2] = tested on: Human immunodeficiency virus 1; experiment: Resistance index, ratio of EC50 for SQV-resistant HIV1 SaqR carrying G48V/L90MV mutation to EC50 for wild type HIV1 NL4-3 in HEK293 cells after 48 hrs by replication-deffective luciferase reporter gene-based phenotypic assay; type: functional

Sequence of Cathepsin D (P07339 65-162 limits assumed): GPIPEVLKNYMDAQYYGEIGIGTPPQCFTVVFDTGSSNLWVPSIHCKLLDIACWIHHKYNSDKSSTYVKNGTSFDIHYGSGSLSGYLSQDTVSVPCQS
Sequence of Cathepsin D (P07339 169-412 limits assumed): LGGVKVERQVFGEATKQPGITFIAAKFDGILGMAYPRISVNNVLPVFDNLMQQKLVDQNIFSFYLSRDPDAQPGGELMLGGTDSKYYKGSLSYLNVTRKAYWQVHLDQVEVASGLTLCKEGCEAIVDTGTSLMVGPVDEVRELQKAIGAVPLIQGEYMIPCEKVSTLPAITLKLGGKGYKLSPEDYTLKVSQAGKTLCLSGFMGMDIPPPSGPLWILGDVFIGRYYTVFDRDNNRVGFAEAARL

## COC(=O)N[C@H](C(=O)NCCCC[C@@H](CO)N(CC(C)C)S(=O)(=O)c1ccc(N)cc1)C(c1ccccc1)c1ccccc1 [PPL-100]
[1]
  IC50: > 50 µM
[2]
  fold change (FC): 2.4
